# Data as given in US20130023491A1, “BETA-CELL REPLICATION PROMOTING COMPOUNDS AND METHODS OF THEIR USE” (President and Fellows of Harvard College, priority 2009, published 2013).
# Entries after “also recorded” stand apart in the source; their conditions may differ. Read-outs that look alike come from different tables or passages of the source.
# Assays:
# [1] = test system: β-cells (dispersed rat islet cells); test: primary islet β-cell replication assay (PDX-1/ki-67 co-staining, automated imaging); type: cell-based; conditions: for EC50: Rattus norvegicus; for increase of β-cell replication: 24 h, 5-IT 2 μM, GLP-1 and Ex-4 20 nM and 4 nM, normalized to DMSO
# Experimental: Rat islets were isolated as previously described in Gotoh M, Maki T, Kiyoizumi T, Satomi S, Monaco A P: An improved method for isolation of mouse pancreatic islets. Transplantation 40:437-438, 1985, contents of which are herein incorporated by reference in their entirety. Isolated islets were cultured overnight in a tissue culture incubator. The following morning, islets were trypsinized into cellular clusters of 1-3 cells, re-suspended in islet media (Mediatech 99-786-CV; 10% FBS serum (Valley Biomedial BS3033); 8.3 mM Glucose (Sigma G7528); 1× Penicillin/Streptomycin (Invitrogen 15070-063); 1× Glutamax (Invitrogen 35050-079)) and plated into the wells of a 96-well plate (Sigma CLS3904) that had been coated with 804G (a rat bladder carcinoma cell line) conditioned media. The cellular plating density was 60 k cells/well and greater than 95% viability was confirmed at the time of plating. […] For screening, compounds were tested at 1 uM concentration in duplicate. After 24-hours of compound treatment, cells were fixed with fresh 4% PFA (Electron Microscopy Services 15710) for 20 minutes and washed with PBS (VWR 45000-446). Antigen retrieval was performed by heating the cells to 90 degrees Celsius in 0.1 mM EDTA (Ambion AM9260G) in PBS. Cells were then washed and permeabalized with PBS/0.3% Triton X-100 (J.T.Baker X198-07) for 15 minutes. Immunocytochemical staining was then performed as follows. Antigen blocking was performed with 5% normal donkey serum (Jackson ImmunoResearch 017-000-121) in PBS for an hour. Staining was performed by overnight incubation with primary antibody at 4 degrees Celsius. For the primary screen, PDX-1 antibody (R&D AF2419) was used to reveal beta-cells and ki-67 antibody (BD Bioscience 556003) to visualize proliferating cells. Without wishing to be bound by theory, the failure of prior beta-cell replication screens is primarily a consequence of using a cytoplasmic marker (Insulin) as the β-cell identifier. The use of a cytoplasmic marker prevents accurate attribution of nuclear replication to a specific cell identity i.e., in dense culture it is impossible to attribute a cytoplasm to a specific nucleus given the proximity to multiple nuclei. Additional Immunohistochemistry antibodies included Phosphohistone 3 (Millipore 06-570), Insulin (Dako A0564), Glucagon (Millipore 4031-01F) and Vimentin (Millipore ab5733). For western blotting anti-bodies included ADK (Abcam ab38010, ab64825) and RAN (BD Bioscience 610340) as a loading control.
# Once compound-treated islet cells were stained, β-cell replication was assessed via automated image acquisition and analysis using a Cellomics ArrayScanVTI. The acquisition thresholds/parameters were established such that the computer-based calls of replication events were consistent with human-based calls. The parameters used were directed at the identification of (1) PDX-1+ cells and (2) ki-67 positive staining within the PDX-1 positive area. The algorithm was a three step process. First the nuclear area was predicted by the software based upon the expected PDX-1 staining pattern. Second PDX-1 positive cells (selected objects) were counted based upon the average staining intensity within the predicted nuclear area (Note: total signal intensity was essentially equal in quality but was not typically used). Third, the number of PDX-1 positive cells (selected objects) that simultaneously were Ki-67 positive was determined by determining the average fluorescence intensity of ki-67 staining within the predicted nuclear area (again, total intensity was also occasionally used with equal efficacy). The specific thresholds (fluorescence intensities) varied from experiment to experiment. In general, the basal replication rate was set at roughly 1% i.e., the algorithm was varied until 1% of DMSO treated PDX+ cells were reported to be double positive for PDX-1 and ki67. […]
# murine β-cells = test: murine islet β-cell replication (PDX-1/ki-67); type: cell-based, mouse; conditions: FIG. 13b top
# Experimental: (§1) Rat and mouse islets were isolated as previously described. (M. Gotoh, et al., Transplantation 43, 725-730 (1987)) All animal work was approved and carried out in accordance with our institutional animal care and use committee. Porcine islets were provided by VitaCyte (Indianapolis, Id.). Islets were incubated (37° C., 5% CO2) overnight in islet media (Mediatech 99-786-CV; 10% FBS serum (Valley Biomedial BS3033); 8.3 mM Glucose (Sigma G7528); 1× Penicillin/Streptomycin (Invitrogen 15070-063); 1× Glutamax (Invitrogen 35050-079)). The following morning, islets were trypsinized into cellular clusters of 1-3 cells, re-suspended in islet media and plated into the wells of a 96-well plate (Sigma CLS3904) that had been coated with 804G (a rat bladder carcinoma cell line) conditioned media. The cellular plating density was 60 k cells/well and greater than 95% viability was confirmed at the time of plating. The islet cells were allowed 48-hours to adhere at which time the media was changed (as above, except 2% serum, 5 mM glucose) and the cells were compound treated. For screening, compounds were tested at 1 μM and 10 μM concentrations in duplicate on a single occasion. After 24-hours of compound treatment, cells were fixed with fresh 4% PFA. Antigen retrieval was performed by heating the cells to 90 degrees Celsius in 0.1 M EDTA in distilled water. […]
# porcine β-cells = test: porcine islet β-cell replication (PDX-1/ki-67); type: cell-based; conditions: FIG. 13b bottom
# Experimental: as §1
# islet β-cells = test: in vivo β-cell replication (BRDU incorporation); set-up: species or system mouse; conditions: mice
# Text: 24-hours post treatment, animals were sacrificed and the pancreas was fixed, sectioned and stained for PDX-1 and BRDU (Amaersham RPN202). Every fourth section was included in analysis and a minimum of 2000 PDX-1^+ per animal were counted.
# (§2) A minority of these cells were not exocrine cells. […] Dividing cells were BRDU^+ (Amaersham RPN202).
# exocrine cells = test: in vivo exocrine cell replication (BRDU incorporation); set-up: species or system mouse; conditions: mice, 21 mg/kg, 24 h
# Text: as §2
# [2] = compared to 5-IT; Zheng et al. 2001; cited from earlier work
compound,measurement,setting,value
"Nc1ncnc2c1c(I)cn2[C@H]1CC[C@@H](CO)O1 [7-Iodo-2,3-dideoxy-7-deazadenosine, 7-deaza-7-iodo-2′,3′-dideoxyadenosine]",β-cell replication after treatment with additional ADK-Is,"[1]; FIG. 17b, 7-Iodo-2,3-dideoxy-7-deazadenosine 20 μM, 10 μM, Aristeromycin 6 μM, 1 μM",increased
"Nc1ncnc2nc(-c3ccc(N4CCOCC4)nc3)cc(-c3cccc(Br)c3)c12 [ABT-702, 5-(3-bromophenyl)-7-(6-morpholinopyridin-3-yl)pyrido[2,3-d]pyrimidin-4-amine]","% of Ki-67 positive β-cells (PDX-1 and Ki-67 positive cells), dose curve","[1]; A10 0.019-10 uM, B8 0.23-30 uM",increased in a dose dependent manner
same,EC50,"[1]; FIG. 13c dose-response curves, read-out: EC50, β-cell proliferation in rat islet cultures",7 µM
same,EC50,"[1]; dose curves FIG. 2a (A10) and FIG. 3 (B8), Ki-67 positive β-cells, read-out: EC50 for β-cell proliferation",9.1 µM
same,"induction of β-cell replication, murine islet cells",murine β-cells,induction of β-cell replication similar to that observed for rat islet cells
same,"induction of β-cell replication, porcine islet cells",porcine β-cells,induction of β-cell replication similar to that observed for rat islet cells
same,"in vivo β-cell replication rate, β-cells identified by insulin immunostaining","islet β-cells; separate cohort, FIG. 20",increases
same,increase in BRDU incorporation by β-cells in vivo (PDX-1 identified),"islet β-cells; single intraperitoneal injection, 21 mg/kg, 24 h",2 fold
same,in vivo replication rate of exocrine cells,exocrine cells,did not increase
same,half-life,[2],longer half-life compared to 5-IT
"NC(=O)c1ncn([C@@H]2O[C@H](CO)[C@@H](O)[C@H]2O)c1N [AICAR, 5-aminoimidazole-4-carboxamide ribonucleoside]",% β-cell replication,[1]; AICAR 3.3 μM,increase
c1cc(-c2cnn3cc(-c4ccc(OCCN5CCCCC5)cc4)cnc23)ccn1 [Cpd C],beta-cell replication with A10 relative to the uninhibited controls,[1]; Cpd C 10 μM,decrease
Nc1ncnc2c1ncn2[C@@H]1O[C@H](CO)[C@@H](O)[C@H]1O [adenosine],effect on % PDX-1 and Ki-67 expressing cells (β-cell proliferation),"[1]; rat islets, adenosine 0.05-1000 uM",little effect; also recorded: no effect
Exendin-4 [Ex-4],increase of β-cell replication,[1],~1.5 fold
Glucagon-like peptide-1 [GLP-1],increase of β-cell replication,[1],~1.5 fold
